Results reported in patent EP3023007A1, “[…]” (JIANGSU ROTAM CHEMISTRY CO., LTD., priority 2013, dated 2015).

Legend:
cabbage leaf spot = assay: Toxicity test of leaf spot of cabbage (pot test on sprayed seedlings, EC50 and co-toxicity coefficient by Sun Yunpei's method); format: in vivo; conditions: for EC50 (PPM): cabbage seedlings, sprayed 24 h before inoculation, disease index after seven days; for TTI: toxicity index, cabbage leaf spot
Experimental: (§1) The toxicity index of each of the formulations and the co-toxicity coefficient (CTC value) of the mixed formulation were calculated according to Sun Yunpei's method. […] Actual toxicity index (ATI) = (standard formulation EC50/testing formulation EC50)*100 [formula]
(§2) Theoretical toxicity index (TTI) = (toxicity index of formulation A * percentage of A in the mixed formulation) + (toxicity index of formulation B * percentage of B in the mixed formulation) Co−toxicity coefficient (CTC) = [actual toxicity index(ATI) of the mixed formulation/theoretical toxicity index (TTI)of the mixed formulation]*100 [formula]
(§3) The samples were selected from the cabbage seedlings in the same growing period. Three pots were selected for each treatment and each pot was sprayed with 5 mL with a potter spray tower at the pressure of 50 PSI and each chemical was set for 12 concentration gradients. Inoculation was carried out 24 hours after the treatment of the formulations. The conidiums from the leaves with cabbage leaf spot (collected from the field) was spread evenly on the cabbage seedlings, and the cabbage seedlings were then put in the green house for culturing.
(§4) Seven days later, the disease index for the whole plant was studied according to the pathological grading standard of cabbage leaf spot. The prevention and control efficacy was determined, and the generalized least square method was then applied to calculate the half maximal effective concentration EC50. The Sun Yunpei's method was applied to calculate the co-toxicity coefficient (CTC). Table 3: Toxicity Test Result of Applying the Present Invention to Prevent and Control Leaf Spot of Cabbage

potato cinerea = assay: Activity of preventing and controlling grey mould of potato (Colby synergy test, visual observation); format: in vivo; conditions: Solanum tuberosum, potato seedlings in pots, read-out: Observed activity (%)
Description: A synergistic effect exists when the fungicidal activity of the active compound composition is greater than the sum of the activities of the active compounds applied individually. The expected activity for a given combination of two active compounds can be calculated in accordance with Colby's formula (refer to S.R. Colby, "Calculating Synergistic and Antagonistic Responses of Herbicide Combinations", Weeds 1967, 15, 20-22) as follows: • If X denotes the activity when using active compound A at an application rate of mg/ha or in a concentration of mppm; • Y denotes the activity when using active compound B at an application rate of ng/ha or in a concentration of nppm; • E denotes the activity when using active compounds A and B at application rates of m and ng/ha or in concentration of m and n ppm;
Then: E = X + Y−(X⋅Y)/(100) [formula]
The leaves of the potato seedlings in pots were sprayed with the suspension concentrate in a range of concentrations of the active compounds.
The next day, the treated plants were inoculated with a spore suspension of potato cinerea. The pots were then allowed to stand for 24 hours in a room at 20-22 °C and with high humidity (90-95%). During this period, the spores germinated and the germ tubes penetrated into the leaf tissues. […] Later, the development of cinerea on the leaves was determined by visual observation.

wheat downy mildew = assay: Toxicity test of wheat downy mildew (pot test on sprayed seedlings, EC50 and co-toxicity coefficient by Sun Yunpei's method); format: in vivo; conditions: for TTI: toxicity index, wheat downy mildew; for EC50 (PPM): wheat seedlings, sprayed 24 h before inoculation, disease index after seven days
Experimental: as §1, §2
(§5) The samples were selected from wheat seedlings in the same growing period of three to four leaf stage. Three pots were selected for each treatment and each pot was sprayed with 5 mL with a potter spray tower at the pressure of 50 PSI and each chemical was set for 12 concentration gradients. Inoculation was carried out 24 hours after the treatment of the formulations. The conidiums from the leaves with wheat downy mildew (collected from a field) was spread evenly on the wheat seedlings, and then the wheat seedlings were put in the green house for culturing.
as §4, with “wheat downy mildew.” for “cabbage leaf spot.”, “was” for “was then”, “1:” for “3:”, “Wheat Downy Mildew” for “Leaf Spot of Cabbage”

sclerotia sclerotium = conditions: after applying it once in a suitable period; cited from earlier work
potato gray mold = assay: Toxicity test of potato gray mold (pot test on sprayed seedlings, EC50 and co-toxicity coefficient by Sun Yunpei's method); format: in vivo; conditions: for EC50 (PPM): potato seedlings, sprayed 24 h before inoculation, disease index after seven days; for TTI: toxicity index, potato gray mold
Experimental: as §1, §2
as §5, with “potato” for “wheat”, “potato gray mold” for “wheat downy mildew”
as §4, with “potato gray mold.” for “cabbage leaf spot.”, “was” for “was then”, “2:” for “3:”, “Potato Gray Mold” for “Leaf Spot of Cabbage”

tomato downy mildew = assay: Toxicity test of downy mildew of tomato (pot test on sprayed seedlings, EC50 and co-toxicity coefficient by Sun Yunpei's method); format: in vivo; conditions: for EC50 (PPM): tomato seedlings, sprayed 24 h before inoculation, disease index after seven days; for TTI: toxicity index, tomato downy mildew
Experimental: as §1, §2
as §3, with “tomato” for “cabbage”, “set” for “set for”, “tomato downy mildew” for “cabbage leaf spot”
as §4, with “tomato downy mildew.” for “cabbage leaf spot.”, “4:” for “3:”, “Tomato Downy Mildew” for “Leaf Spot of Cabbage”

Structure (SMILES): O=C(Nc1ccccc1-c1ccc(Cl)cc1)c1cccnc1Cl [Boscalid, 2-chloro-N-(4'-chlorobiphenyl-2-yl) nicotinamide]
- EC50 (PPM) (cabbage leaf spot): 26.13 PPM
- TTI (cabbage leaf spot): 100
- activity at 8 ppm (potato cinerea; Concentration 8 ppm): 28%
- TTI (wheat downy mildew): 100
- EC50 (PPM) (wheat downy mildew): 16.23 PPM
- control effect and disease index (sclerotia sclerotium): more than 80%
- EC50 (PPM) (potato gray mold): 15.23 PPM
- TTI (potato gray mold): 100
- EC50 (PPM) (tomato downy mildew): 22.24 PPM
- TTI (tomato downy mildew): 100

Structure (SMILES): N#Cc1c(Cl)c(Cl)c(Cl)c(C#N)c1Cl [Chlorothalonil, 2,4,5,6-tetrachloro-1,3-benzenedicarbonitrile]
- EC50 (PPM) (cabbage leaf spot): 38.03 PPM
- TTI (cabbage leaf spot): 68.71
- activity at 40 ppm (potato cinerea; Concentration 40 ppm): 0%
- TTI (wheat downy mildew): 86.5
- EC50 (PPM) (wheat downy mildew): 18.76 PPM
- EC50 (PPM) (potato gray mold): 38.03 PPM
- TTI (potato gray mold): 68.71
- EC50 (PPM) (tomato downy mildew): 32.27 PPM
- TTI (tomato downy mildew): 68.91
